The source of these data is US20230104315A1, “METHOD OF IDENTIFYING EXTRACHROMOSOMAL DNA SIGNATURES” (Boundless Bio, Inc., priority 2020, published 2023).

In the test the test system is SNU16 cells. Description: ecDNA copy number from exome data of SNU16 cells under sequential infigratinib and erlotinib treatment. It counts as cell-based, human. Conditions: FIG. 19; for MYC and PDHX ecDNA copy numbers: 1 μM infigratinib up to 12 weeks, followed by 5 μM erlotinib up to four weeks; for EGFR ecDNA copy number: 1 μM infigratinib, followed by 5 μM erlotinib. On the procedure:
Exomes were prepared using Human Core Exome kit (Twist Bioscience) and sequenced on an Illumina platform with 2×150 paired-end read configuration.
Sequencing data was processed according to genome analysis tool kit (GATK) recommended practices (see gatk.groadinstitute.org/hc/en-us/articles/30035894731-Somatic-short-variant-discovery-SVNs-Indels-). Briefly, raw reads were aligned to the human genome (version GRCh37) using Burrows-Wheeler aligner (BWA) […] exact match (MEM). Small somatic variations were then extracted using Mutect2 (GATK v4.1.9.0) and filtered using FilterMutectCalls.
A culture of SNU16 cells was subjected to a sequence of treatments, starting with infigratinib and followed with erlotinib. Exome data was obtained from these cells at various time points during this experiment: before treatment with infigratinib, two weeks into treatment with 1 μM infigratinib, after 12 weeks of treatment with 1 μM infigratinib, before treatment with erlotinib, two weeks into treatment with 5 μM erlotinib, and four weeks into treatment with 5 μM erlotinib. VCF files produced by GATK Mutect2 were used to calculate rates of substitutions, insertions, and deletions in one million nucleotide-long genomic windows over the entire autosomal genome. Mean coverage depth was estimated by averaging depth for all mutations in that particular genomic window as reported in the VCF file.

SMILES strings stand for the structures.

With `C#Cc1cccc(Nc2ncnc3cc(OCCOC)c(OCCOC)cc23)c1` [erlotinib], the “MYC and PDHX ecDNA copy numbers” value is listed as “mostly stable”; the “EGFR ecDNA copy number” value was “went back down”.

Take `CCN1CCN(c2ccc(Nc3cc(N(C)C(=O)Nc4c(Cl)c(OC)cc(OC)c4Cl)ncn3)cc2)CC1` [infigratinib]: the “MYC and PDHX ecDNA copy numbers” value is “mostly stable”; the “EGFR ecDNA copy number” value is given as “dramatically increased”. Further, the “FGFR2 ecDNA copy number” value (during treatment with 1 μM infigratinib) is “moderately decreased”.
